# According to patent US12593767B2, “Protoplast isolation and regeneration of plants” (The Regents of the University of California, priority 2019, dated 2026):
# Where “and” joins values, the source holds several entries; their conditions need not be identical. Equal values may be shown once. Read-outs that look alike come from different tables or passages of the source.
# Key:
# TS protoplast = assay: Polyamines: callus colony formation from encapsulated protoplasts in 1103P feeder suspension; format: cell-based, grape; conditions: for # colonies/alginate bead: 14 days after encapsulation, beads 1-5; for # colonies/alginate bead, Average / # colonies, Total: 14 days; for # colonies, Total: total of 5 beads
# Description: We re-suspended embedded protoplasts in conditioned osmotically adjusted grape cell suspension cultures in 125 ml shake flasks and incubated them at 100 rpm and 25 degrees centigrade. In this system, we utilize a grape nurse suspension culture that is of a different genotype than the genotype used to generate the protoplasts. For example, we used 1103P conditioned cell suspension cultures for embedded Thompson Seedless protoplasts.
# Recently, we have replaced the use of the shake flasks with 60×15 mm petri plates. This format allows for easy observation of the protoplasts using an inverted microscope and aids sampling of beads to evaluate the fate of the embedded protoplasts. Beads are cultured in 3.5 ml of Lloyd and McCown minimal organics medium supplemented with 30 g/l sucrose, 10 mg/l Picloram and 2.0 mg/l TDZ, 0.4 M mannitol, 1,191 mg/l HEPES, 50 mM CaCl2, 5× antioxidant solution with 1.5 ml of conditioned 1103P cell suspension culture.
# We are testing the ability of these polyamines to increase the plating efficiency of encapsulated protoplast as well as increase the rate of cell division. Initially we tested 1.0 mM putrescine in combination with 0.0 or 0.1 mM spermidine since we have previously found these levels to be beneficial in other plant species.
# Merlot protoplasts = conditions: for Ave colonies per bead / Number of colonies, Total / Number of colonies per bead: + 1.0 mM PUT, 0.1 mM SPD; for Number of colonies, Total: total of 5 beads; for Number of colonies per bead: beads 1-5
# Description: I have developed and tested an antioxidant solution consisting of 100 mg/l ascorbic acid, 150 mg/l citric acid, 30 mg/l reduced glutathione and 100 mg/l L-cysteine (PTF AQ). I tested the effect of this antioxidant addendum on protoplast viability and division on Thompson seedless and Merlot protoplast culture. Protoplast were isolated and encapsulated in 1.6% calcium alginate beads. Calcium alginate beads from the same protoplast preparation were randomly transferred to shake flasks containing conditioned 0.4 M Pic/TDZ 1103P feeder cell suspensions with or without the addition of 1× or 5× of the antioxidant solutions. After 14 days, the osmotic strength of the feeder suspension was reduced from 0.4 M to 0.2 M mannitol. At day 35, I randomly harvested five beads per treatment and counted the number of mini calli per bead.
# [1] = system: protoplast-derived somatic embryos; assay: Maintenance of embryo-containing beads on sorbitol-containing agar medium; format: cell-based, grape; conditions: beads maintained on agar-solidified medium containing sorbitol (50 g/l)
# Description: Using forceps, we manually transferred individual beads to a 100×20 mm petri dish containing 40 ml of Lloyd and McCown minimal organics medium supplemented with 20 g/l sucrose, 1 g/l casein, 222 mg/l CaCl2, without hormones or activated charcoal. We repeated this transfer/washing process two more times to eliminate any of the feeder suspension cells. We then transferred beads onto agar-solidified 100×20 mm feeder plates containing 40 ml of Lloyd and McCown minimal organics medium supplemented with 20 g/l sucrose, 50 g/l sorbitol, 1 g/l casein, 1 mM MES, 0.5 mg/l BAP and 0.1 mg/l NAA onto which 1.0 ml of a […] grape suspension culture is plated. The grape suspension culture medium consisted of WPM medium supplemented with 20 g/l sucrose 10 mg/l picloram and 2.0 […] mannitol, 222 mg/l CaCl2, 1 g/l casein, 1,191 mg/l HEPES and 2 g/l activated charcoal, pH 5.7. We placed an 85 mm Whatman filter paper over the plated suspension and a 70 mm Whatman filter paper on top of the 85 mm filter. We placed beads on top of the 70 mm filter paper. We add 1 ml Lloyd and McCown minimal organics medium supplemented with 30 g/l sucrose, 1 g/l casein, 1 mM MES, 10 mg/l picloram and 2.0 mg/l TDZ to each plate to prevent desiccation. We incubated the cultures at 26 degrees centigrade in the dark. After approximately 3-4 weeks, mini-calli developed into somatic embryos within the beads (FIG. 15). […]
# [2] = SPD 0.0 mM, SPM 0.1 mM, + 1 mM putrescine, Experiment 19129
# [3] = SPD 0.0 mM, SPM 1.0 mM, + 1 mM putrescine, Experiment 19129
# [4] = SPD 0.0 mM, CAD 0.1 mM, + 1.0 mM putrescine, 0.1 mM spermidine, Experiment 19136
# [5] = SPD 0.0 mM, CAD 1.0 mM, + 1.0 mM putrescine, 0.1 mM spermidine, Experiment 19136
# [6] = SPD 0.1 mM, CAD 0.0 mM, + 1.0 mM putrescine, 0.1 mM spermidine, Experiment 19136
# [7] = SPD 0.1 mM, SPM 0.0 mM, + 1 mM putrescine, Experiment 19129
# [8] = SPD 1.0 mM, CAD 0.0 mM, + 1.0 mM putrescine, 0.1 mM spermidine, Experiment 19136
# [9] = SPD 1.0 mM, SPM 0.0 mM, + 1 mM putrescine, Experiment 19129
smiles,measurement,setting,value
NCCCCN [putrescine],callus colony formation,TS protoplast; 1.0 mM putrescine,stimulated callus colony formation
NCCCNCCCCNCCCN [spermine],enhancement in growth,"TS protoplast; 0.1 mM spermine, + 1.0 mM putrescine",did not see any enhancement in growth
same,callus colony growth,"TS protoplast; 1.0 mM spermine, 21 days of culture, regardless of the level of CAD",significant enhancement in callus colony growth
same,number of protoplasts that divided and speed of protoplast derived callus formation,"TS protoplast; 1.0 mM spermine, + 1.0 mM putrescine, irrespective of the spermidine concentration",enhanced the number of protoplasts that divided and the speed of protoplast derived callus formation
same,# colonies/alginate bead,"TS protoplast; SPD 0.0 mM, SPM 0.1 mM, + 1 mM putrescine, Experiment 19129, listed as SPM",96 colonies/alginate bead and 81 colonies/alginate bead and 79 colonies/alginate bead and 59 colonies/alginate bead and 84 colonies/alginate bead
same,"# colonies/alginate bead, Average",TS protoplast; [2],79.8 colonies/alginate bead
same,"# colonies, Total",TS protoplast; [2],399
same,"# colonies/alginate bead, Average",TS protoplast; [3],205.8 colonies/alginate bead
same,"# colonies, Total",TS protoplast; [3],1029
same,number and speed of mini-callus formation,TS protoplast; Thompson seedless derived protoplasts,significantly enhanced the number and speed of mini-callus formation
same,number and speed of mini-callus formation,Merlot protoplasts; Merlot derived protoplasts,significantly enhanced the number and speed of mini-callus formation
same,Ave colonies per bead,Merlot protoplasts; SPM 0.1 mM,0.2 colonies per bead
same,"Number of colonies, Total",Merlot protoplasts; SPM 0.1 mM,1
same,Ave colonies per bead,Merlot protoplasts; SPM 0.25 mM,0 colonies per bead
same,Number of colonies per bead,Merlot protoplasts; SPM 0.25 mM,0 colonies per bead
same,"Number of colonies, Total",Merlot protoplasts; SPM 0.25 mM,0
same,Ave colonies per bead,Merlot protoplasts; SPM 0.5 mM,0.2 colonies per bead
same,"Number of colonies, Total",Merlot protoplasts; SPM 0.5 mM,1
same,Ave colonies per bead,Merlot protoplasts; SPM 0.75 mM,0 colonies per bead
same,Number of colonies per bead,Merlot protoplasts; SPM 0.75 mM,0 colonies per bead
same,"Number of colonies, Total",Merlot protoplasts; SPM 0.75 mM,0
same,Ave colonies per bead,Merlot protoplasts; SPM 1.0 mM,6.2 colonies per bead
same,"Number of colonies, Total",Merlot protoplasts; SPM 1.0 mM,31
NCCCCCN [cadaverine],# colonies/alginate bead,"TS protoplast; SPD 0.0 mM, CAD 0.1 mM, + 1.0 mM putrescine, 0.1 mM spermidine, Experiment 19136, listed as CAD",100 colonies/alginate bead and 115 colonies/alginate bead and 92 colonies/alginate bead and 104 colonies/alginate bead and 95 colonies/alginate bead
same,"# colonies/alginate bead, Average",TS protoplast; [4],101.2 colonies/alginate bead
same,"# colonies, Total",TS protoplast; [4],506
same,# colonies/alginate bead,"TS protoplast; SPD 0.0 mM, CAD 1.0 mM, + 1.0 mM putrescine, 0.1 mM spermidine, Experiment 19136, listed as CAD",104 colonies/alginate bead and 82 colonies/alginate bead and 87 colonies/alginate bead and 92 colonies/alginate bead and 73 colonies/alginate bead
same,"# colonies/alginate bead, Average",TS protoplast; [5],87.6 colonies/alginate bead
same,"# colonies, Total",TS protoplast; [5],438
same,cell division or cells growth from grape protoplasts,"TS protoplast; cadaverine 0.1 or 1.0 mM, + 1.0 mM putrescine, 0.1 mM spermidine, 0.0-1.0 mM spermine",does not seem to enhance cell division or cells growth
OC[C@@H](O)[C@@H](O)[C@H](O)[C@@H](O)CO [sorbitol],germination of embryos in beads,[1],will not germinate further and become dormant
NCCCCNCCCN [spermidine],"callus colony formation, addition to 1.0 mM putrescine",TS protoplast; 0.1 mM spermidine,did not enhance the response
same,# colonies/alginate bead,"TS protoplast; SPD 0.1 mM, CAD 0.0 mM, + 1.0 mM putrescine, 0.1 mM spermidine, Experiment 19136, listed as SPD",68 colonies/alginate bead and 79 colonies/alginate bead and 64 colonies/alginate bead and 65 colonies/alginate bead and 86 colonies/alginate bead
same,"# colonies/alginate bead, Average",TS protoplast; [6],72.4 colonies/alginate bead
same,"# colonies, Total",TS protoplast; [6],362
same,# colonies/alginate bead,"TS protoplast; SPD 0.1 mM, SPM 0.0 mM, + 1 mM putrescine, Experiment 19129, listed as SPD",91 colonies/alginate bead and 93 colonies/alginate bead and 120 colonies/alginate bead and 110 colonies/alginate bead
same,"# colonies/alginate bead, Average",TS protoplast; [7],101.4 colonies/alginate bead
same,"# colonies, Total",TS protoplast; [7],507
same,# colonies/alginate bead,"TS protoplast; SPD 1.0 mM, CAD 0.0 mM, + 1.0 mM putrescine, 0.1 mM spermidine, Experiment 19136, listed as SPD",133 colonies/alginate bead and 121 colonies/alginate bead and 115 colonies/alginate bead and 98 colonies/alginate bead
same,"# colonies/alginate bead, Average",TS protoplast; [8],120 colonies/alginate bead
same,"# colonies, Total",TS protoplast; [8],600
same,# colonies/alginate bead,"TS protoplast; SPD 1.0 mM, SPM 0.0 mM, + 1 mM putrescine, Experiment 19129, listed as SPD",81 colonies/alginate bead and 97 colonies/alginate bead and 79 colonies/alginate bead and 125 colonies/alginate bead and 89 colonies/alginate bead
same,"# colonies/alginate bead, Average",TS protoplast; [9],94.2 colonies/alginate bead
same,"# colonies, Total",TS protoplast; [9],471
